Reference: paper PMC9860728, “Identification of New N-methyl-piperazine Chalcones as Dual MAO-B/AChE Inhibitors” (Pharmaceuticals, 2023)

Tests used:
[1] = biological target: T1, AChE (Electrophorus electricus, UniProt O42275); test: AChE inhibition assay (Ellman method, ATCI); format: biochemical; conditions: mean ± SD
Protocol: (§1) For measuring cholinesterase (ChE) activity, the Ellman method was employed with a slight modification. The AChE and BchE with ~0.02 U/mL were reacted with 0.5 mM ATCI and BTCI, respectively, followed by addition of 0.5 mM DTNB. […] In the inhibition assay, the enzyme and the compound were preincubated in reaction buffer for 15 min, followed by adding substrates and DTNB.

[2] = biological target: BChE (Equus caballus, UniProt P81908); test: biochemical
Sequence of BChE (P81908 whole entry): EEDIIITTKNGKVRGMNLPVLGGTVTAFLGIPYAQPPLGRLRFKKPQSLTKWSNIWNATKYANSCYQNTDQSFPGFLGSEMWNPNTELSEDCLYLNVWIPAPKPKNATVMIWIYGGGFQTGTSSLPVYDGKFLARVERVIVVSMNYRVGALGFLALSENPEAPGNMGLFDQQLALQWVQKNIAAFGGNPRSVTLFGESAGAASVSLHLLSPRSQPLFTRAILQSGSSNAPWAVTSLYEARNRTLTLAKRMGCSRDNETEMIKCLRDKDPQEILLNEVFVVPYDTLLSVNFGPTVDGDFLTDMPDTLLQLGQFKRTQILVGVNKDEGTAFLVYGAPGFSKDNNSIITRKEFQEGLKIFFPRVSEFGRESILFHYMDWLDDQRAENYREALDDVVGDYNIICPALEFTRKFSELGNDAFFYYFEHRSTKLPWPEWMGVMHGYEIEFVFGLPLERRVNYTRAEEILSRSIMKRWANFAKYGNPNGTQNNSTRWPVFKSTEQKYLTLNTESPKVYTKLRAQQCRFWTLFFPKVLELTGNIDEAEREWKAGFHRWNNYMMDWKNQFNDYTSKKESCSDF
Protocol: as §1

[3] = biological target: T1, AChE; test: AChE inhibition kinetics (Lineweaver–Burk and secondary plots); format: biochemical
[4] = Cytotoxicity MTT assay on normal Vero cells; conditions: African green monkey
Protocol: The reference compound staurosporine was purchased from Sigma-Aldrich (Saint Louis, MO, USA). […] CellTiter 96® Non-Radioactive Cell Proliferation Assay (MTT) reagent was purchased from Promega (Cat# G4000). The normal Vero cell line was purchased from ATCC. Normal Vero cells were cultured with EMEM medium plus 10% FBS. In total, 100 µg/mL penicillin and 100 µg/mL streptomycin were added to the culture media.
The test compounds (100 nL) and staurosporine (25 nL) were delivered from the source plate to the wells of 384-well cell culture plates by Echo 550 Liquid Handler. […] MTT Dye Solution (8 µL) was added to each well, and the plates were incubated at 37 °C in a CO2 incubator for 6 h. After incubation, the formazan was produced in the cells. Solubilization/Stop Solution (30 µL) was added to each well and the plates were incubated for another 1 h at 37 °C in a CO2 incubator to dissolve the formazan crystals. […] The IC50 curves were plotted, and the IC50 values were calculated using the GraphPad Prism 4 program based on a sigmoidal dose–response equation.

[5] = biological target: T2, MAO-A (Homo sapiens, UniProt P21397); test: MAO-A enzyme inhibition assay (kynuramine substrate); format: biochemical; conditions: mean ± SD
T2 construct: purchased Sigma Aldrich
T2 sequence (P21397 1-527): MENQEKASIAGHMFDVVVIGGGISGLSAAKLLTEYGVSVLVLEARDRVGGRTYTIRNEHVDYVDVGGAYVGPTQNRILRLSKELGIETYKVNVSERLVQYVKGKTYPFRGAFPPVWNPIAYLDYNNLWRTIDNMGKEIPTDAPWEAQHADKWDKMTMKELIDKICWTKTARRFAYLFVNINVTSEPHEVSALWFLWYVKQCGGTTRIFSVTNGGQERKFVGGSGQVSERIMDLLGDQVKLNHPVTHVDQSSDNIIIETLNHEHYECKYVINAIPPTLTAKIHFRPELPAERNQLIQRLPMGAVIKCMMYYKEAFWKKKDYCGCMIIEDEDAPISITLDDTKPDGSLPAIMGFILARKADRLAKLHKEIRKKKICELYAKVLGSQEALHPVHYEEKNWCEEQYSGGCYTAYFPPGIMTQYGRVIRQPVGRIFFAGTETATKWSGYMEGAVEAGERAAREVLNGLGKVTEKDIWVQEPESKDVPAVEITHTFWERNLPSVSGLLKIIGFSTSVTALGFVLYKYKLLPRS
Protocol: MAO assays were performed as described previously, i.e., ~0.09 U/mL of MAO-A and MAO-B were reacted with 0.06 mM kynuramine and 0.3 mM benzylamine, respectively, in 50 mM sodium phosphate (pH 7.2). […] For inhibition assay, the compounds were dissolved in DMSO and added into the reaction mixture. The final concentration of DMSO in the reaction mixture was less than 1% to avoid solvent disturbance.

[6] = biological target: T3, MAO-B (Homo sapiens, UniProt P27338); test: Reversibility test for MAO-B using dialysis method; format: biochemical; conditions: for Residual activity of MAO-B after dialysis: after dialysis for 6 h, inhibitor at ~2 × IC50
T3 construct: purchased Sigma Aldrich
T3 sequence (P27338 1-520): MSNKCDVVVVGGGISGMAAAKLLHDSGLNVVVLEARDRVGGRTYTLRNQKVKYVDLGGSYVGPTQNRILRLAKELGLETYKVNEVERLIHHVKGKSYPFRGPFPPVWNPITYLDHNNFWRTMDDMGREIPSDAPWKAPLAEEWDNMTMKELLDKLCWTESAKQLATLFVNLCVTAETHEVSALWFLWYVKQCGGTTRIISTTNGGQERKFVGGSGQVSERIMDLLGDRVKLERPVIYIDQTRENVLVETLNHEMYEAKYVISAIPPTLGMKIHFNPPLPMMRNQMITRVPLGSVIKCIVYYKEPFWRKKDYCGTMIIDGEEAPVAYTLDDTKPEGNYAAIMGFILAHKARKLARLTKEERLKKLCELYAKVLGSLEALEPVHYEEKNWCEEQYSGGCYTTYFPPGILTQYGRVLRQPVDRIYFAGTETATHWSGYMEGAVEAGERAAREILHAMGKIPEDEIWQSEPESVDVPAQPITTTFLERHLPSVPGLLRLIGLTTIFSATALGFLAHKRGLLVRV
Protocol: Reversibility of the compounds for MAO-B was measured using the dialysis method. […] The reaction mixture was placed in a dialysis tube (DiaEasyTM Dialyzer (800 µL) MWCO 6–8 kDa, Biovision, CA, USA) and dialyzed for 6 h. After that, the 0.3 mM of benzylamine was added into the reaction mixture for measuring enzyme activity. The relative activity to the control (without inhibitors) before and after dialysis was calculated, respectively.

[7] = biological target: T3, MAO-B; conditions: MAO-B selectivity over MAO-A; cited from earlier work
[8] = biological target: T1, AChE; conditions: read-out: Ki AChE; morpholine-based chalcones; cited from earlier work
[9] = read-out: Residual activity of MAO-B before dialysis

T1 sequence (O42275 24-633): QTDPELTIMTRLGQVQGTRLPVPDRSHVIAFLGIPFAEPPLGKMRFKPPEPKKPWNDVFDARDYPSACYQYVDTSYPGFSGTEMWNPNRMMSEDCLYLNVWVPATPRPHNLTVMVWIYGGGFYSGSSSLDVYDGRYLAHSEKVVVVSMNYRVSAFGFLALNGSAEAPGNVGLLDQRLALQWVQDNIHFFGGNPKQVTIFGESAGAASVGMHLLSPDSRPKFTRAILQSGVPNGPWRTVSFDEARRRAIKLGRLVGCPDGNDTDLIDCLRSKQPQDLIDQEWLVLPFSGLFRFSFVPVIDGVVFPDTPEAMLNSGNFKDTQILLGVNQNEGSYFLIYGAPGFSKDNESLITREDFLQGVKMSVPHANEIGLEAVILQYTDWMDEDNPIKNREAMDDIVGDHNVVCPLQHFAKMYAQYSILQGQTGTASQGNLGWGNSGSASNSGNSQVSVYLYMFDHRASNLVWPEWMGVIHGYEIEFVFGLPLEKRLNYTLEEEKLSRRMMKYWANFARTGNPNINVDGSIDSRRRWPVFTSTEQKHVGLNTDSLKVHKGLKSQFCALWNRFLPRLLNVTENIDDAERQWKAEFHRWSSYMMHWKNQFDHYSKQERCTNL

Question: With `CN1CCN(c2ccc(C(=O)/C=C/c3cc(Br)ccc3F)cc2)CC1` [Compound 2n, (E)-3-(5-bromo-2-fluorophenyl)-1-(4-(4-methylpiperazin-1-yl)phenyl)prop-2-en-1-one] as the compound, how does the IC50 [1] read?
Answer: 4.32 ± 0.39 µM

Question: What about the “Residual Activities at 10 μM (%) BChE” value ([2]; 10 μM compound, mean ± SD) of the same compound?
Answer: 43.21 ± 2.88%

Question: What about the “Inhibition pattern for AChE” value [3] of the same compound?
Answer: mixed type

Question: What about the IC50 at 72 h [4] of the same compound?
Answer: 62 µM

Question: What does the source list for `CN1CCN(c2ccc(C(=O)/C=C/c3ccc(F)c(C(F)(F)F)c3)cc2)CC1` [Compound 2k, (E)-3-(4-fluoro-3-(trifluoromethyl)phenyl)-1-(4-(4-methylpiperazin-1-yl)phenyl)prop-2-en-1-one]?
Answer: remaining activity at 10 µM ([5]; 10 μM compound, read-out: Residual Activities at 10 μM (%) MAO-A): 96.4 ± 3.03%; IC50 [5]: > 40 µM; remaining activity at 10 µM ([1]; 10 μM compound, read-out: Residual Activities at 10 μM (%) AChE): 46.9 ± 2.58%; remaining activity at 10 µM ([2]; read-out: Residual Activities at 10 μM (%) BChE): 61.8 ± 5.54%; Inhibition pattern for AChE [3]: mixed type; Residual activity of MAO-B after dialysis [6]: 80.26%; Reversibility of MAO-B inhibition ([6]; dialysis method): reversible; remaining activity at 1.16 µM [6, 9]: 14.6%; IC50 at 72 h [4]: 19.9 µM

Question: For `NCCNC(=O)c1ccc(Cl)cn1` [Lazabemide, reference compound], which “Residual activity of MAO-B after dialysis” value [6] is on record?
Answer: 98.78%

Question: What about the remaining activity at 0.22 µM [6, 9] of the same compound?
Answer: 20.5%

Question: For `C#CCN(C)Cc1ccccc1` [Pargyline, reference compound], which “Residual activity of MAO-B after dialysis” value [6] is on record?
Answer: 24.88%

Question: For `O=C(/C=C/c1ccc(C(F)(F)F)cc1)c1ccc(N2CCNCC2)cc1` [PC11], which “SI (MAO)” value [7] is on record?
Answer: 49.2

Question: For `CN(C)c1ccc(/C=C/C(=O)c2ccc(N3CCOCC3)cc2)cc1` [MO5], which Ki [8] is on record?
Answer: 2.52 µM

Question: With `O=C(/C=C/c1ccc(F)cc1)c1ccc(N2CCNCC2)cc1` [PC10] as the compound, how does the “SI (MAO)” value [7] read?
Answer: 48.3

Question: Which Ki [8] does the source give for `O=C(/C=C/c1ccc(Br)cc1)c1ccc(N2CCOCC2)cc1` [MO9] here?
Answer: 7.04 µM
